Measurements taken from patent US20120128740A1, “NANOSTRUCTURED […] BASE, ITS PHARMACEUTICALLY ACCEPTABLE SALTS AND CO-CRYSTALS, COMPOSITIONS OF THEM, PROCESS FOR THE PREPARATION THEREOF AND PHARMACEUTICAL COMPOSITIONS CONTAINING THEM” (priority 2009, published 2012).

Key:
[1] = cited from earlier work
[2] = Visual observation of wettability by stereomicroscope; format: physicochemical; conditions: one drop of distillate water on 0.1 mg powder
Description: Wettability of nanostructured Sildenafil Citrate particles was investigated in distilled water and was visualized by stereomicroscope equipped with CCD camera. 0.1 mg reference and nanostructure Sildenafil powder was placed to the slide and then one drop of distillate water was added to the powder.

[3] = Particle size concluded from X-ray diffractograms; format: physicochemical; conditions: XRD
Description: The wide reflection between 15 and 20 20 values indicates the amorphous structure of the Carbopol 971. The characteristic reflections of the crystalline Sildenafil citrate can be found on the XRD diffractogram of nanosized Sildenafil citrate, but with lower intensity.

For `CCCc1nn(C)c2c(=O)[nH]c(-c3cc(S(=O)(=O)N4CCN(C)CC4)ccc3OCC)nc12.O=C(O)CC(O)(CC(=O)O)C(=O)O` [Sildenafil citrate, 1-[[3-(6,7-dihydro-1-methyl-7-oxo-3-propyl-1H-pyrazolo[4,3-d]pyrimidin-5-yl)-4-ethoxyphenyl]sulfonyl]-4-methylpiperazine citrate], the absolute bioavailability ([1]; oral) is given as 41%, the “dose dependence of AUC and cmax” value ([1]; single doses from 1.25 to 200 mg) is given as “dose-proportional” and the wettability [2] is given as “stayed in their aggregated state”. For the same molecule, the “particle size from diffractograms” value [3] was 1-2 μm.
